4 compounds from US20250195521A1 (Revolution Medicines, Inc., priority 2020, published 2025) can be followed below.

As a reminder, the IC50 is the concentration at which inhibition is half-maximal.

The target in one experiment is NRAS WT (Homo sapiens (Human), UniProt P01111+P62937). In words: Ras-Raf disruption/FRET/MOA assay (BRAF RBD, Cyclophilin A). Format: biochemical. The method in brief:
(§1)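 TR-FRET read after 1.5 h with 10 nM anti-His Eu-W1024 and 50 nM anti-GST APC, following 3 h at 25 °C of GMPPNP-loaded His6-Ras (12.5 nM), GST-BRAF RBD (50 nM) and Cyclophilin A (25 μM) with compound from 30 μM final, 10 points, 3-fold. IC50 reported; pH 7.3 HEPES, 100 mM NaCl.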

Another experiment has as its target KRAS G12C (Homo sapiens (Human), UniProt P01116+P62937, G12C). Described as above. Format: biochemical. The conditions noted are these: read-out: KRAS G12C FRET IC50. The essentials:
(§2)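 His6-K-Ras-GMPPNP (12.5 nM), GST-BRAF RBD (50 nM) and tagless Cyclophilin A (25 μM) were combined in 25 mM HEPES pH 7.3 with 100 mM NaCl, 5 mM MgCl2, 0.1% BSA and 0.002% Tween20, with compound as a 10-point 3-fold series from 30 μM final, then incubated 3 h at 25° C.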

Another experiment addresses KRAS G13C (Homo sapiens (Human), UniProt P01116+P62937, G13C). The description is as above. Format: biochemical. The conditions noted are these: read-out: KRAS G13C FRET IC50. The essentials: as §2
The next experiment deals with KRAS G13D (Homo sapiens (Human), UniProt P01116+P62937, G13D). The description is as above. Format: biochemical. The conditions noted are these: read-out: KRAS G13D FRET data IC50. The essentials:
as §2

For another experiment, the target named is NRAS Q61R (Homo sapiens (Human), UniProt P01111+P62937, Q61R). Described as above. Format: biochemical. The essentials: as §1
Chain of NRAS Q61R (P01111 whole entry Q61R): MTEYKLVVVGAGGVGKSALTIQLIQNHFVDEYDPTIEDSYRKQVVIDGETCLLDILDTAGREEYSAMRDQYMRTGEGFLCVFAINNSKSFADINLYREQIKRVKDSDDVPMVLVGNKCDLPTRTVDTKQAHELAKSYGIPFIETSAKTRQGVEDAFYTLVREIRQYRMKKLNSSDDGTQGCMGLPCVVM
Chain of NRAS Q61R (P62937 whole entry): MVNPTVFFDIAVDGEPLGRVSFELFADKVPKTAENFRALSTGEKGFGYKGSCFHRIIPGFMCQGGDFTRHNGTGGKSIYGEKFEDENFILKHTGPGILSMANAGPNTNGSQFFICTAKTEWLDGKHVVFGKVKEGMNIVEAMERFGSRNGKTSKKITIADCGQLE
The target in another experiment is KRAS G12S (Homo sapiens (Human), UniProt P01116+P62937, G12S). The description is as above. The conditions noted are these: read-out: KRAS G12S FRET IC50. Format: biochemical. The essentials: as §2
Chain of KRAS G12S (P01116 other isoform, or with tags, fused parts or gaps G12S): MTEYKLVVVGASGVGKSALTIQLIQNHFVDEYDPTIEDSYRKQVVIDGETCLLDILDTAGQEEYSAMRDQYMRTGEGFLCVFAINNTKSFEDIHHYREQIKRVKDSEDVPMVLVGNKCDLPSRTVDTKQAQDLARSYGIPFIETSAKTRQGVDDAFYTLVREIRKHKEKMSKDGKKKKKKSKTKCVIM
Chain of KRAS G12S (P62937 whole entry): as the sequence (P62937 whole entry) above
Another experiment addresses KRAS Q61H (Homo sapiens (Human), UniProt P01116+P62937, Q61H). The experiment is described as above. Format: biochemical. The essentials:
as §2

For a further experiment, the target named is KRAS G12D (Homo sapiens (Human), UniProt P01116+P62937, G12D). The description is as above. The conditions noted are these: read-out: KRAS G12D FRET IC50. Format: biochemical. The essentials:
as §2

A further experiment addresses KRAS G12V (Homo sapiens (Human), UniProt P01116+P62937, G12V). The description is as above. Format: biochemical. The conditions noted are these: read-out: KRAS G12V FRET IC50. The method in brief: as §2
Another experiment has as its target KRAS WT (Homo sapiens (Human), UniProt P01116+P62937). The description is as above. The conditions noted are these: read-out: KRAS WT FRET data IC50. Format: biochemical. The method in brief: as §2
The next experiment concerns the target NRAS G12C (Homo sapiens (Human), UniProt P01111+P62937, G12C). The description is as above. Format: biochemical. The conditions noted are these: read-out: NRAS G12C FRET data IC50. The essentials:
as §1

The target in the next experiment is NRAS Q61K (Homo sapiens (Human), UniProt P01111+P62937, Q61K). Described as above. Format: biochemical. The essentials:
as §1

Experiment [1] has as its system Capan-1 cells (K-Ras G12V). In words: CellTiter-Glo cell viability, Capan-1. Format: cell-based, human. The conditions noted are these: Homo sapiens, CAPAN-1, 120 h, K-Ras G12V, 5-day treatment; read-out: Capan-1 Cell Viability IC50. The method in brief: (§3)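 Luminescence read on day 5 after ~30 min room-temperature equilibration; compounds added directly to plated cells. Values = (sample signal/avg DMSO)*100, four-parameter logistic fit.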
(In general: Cellular ATP, detected with luciferase, serves as a proxy for viable cell number.)

Experiment [2] deals with NCI-H358 cells (K-Ras G12C). In words: CellTiter-Glo cell viability, NCI-H358. Format: cell-based, human. The conditions noted are these: Homo sapiens, NCI-H358, 120 h, K-Ras G12C, 5-day treatment; read-out: H358 Cell Viability IC50. The method in brief:
as §3

Chain of KRAS G13D (P01116 other isoform, or with tags, fused parts or gaps G13D): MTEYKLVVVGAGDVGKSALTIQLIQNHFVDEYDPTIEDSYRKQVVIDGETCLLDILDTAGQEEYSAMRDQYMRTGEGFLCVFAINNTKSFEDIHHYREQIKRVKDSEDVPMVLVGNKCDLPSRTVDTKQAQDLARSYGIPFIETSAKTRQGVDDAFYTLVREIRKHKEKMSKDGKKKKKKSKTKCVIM
Chain of KRAS G13D (P62937 whole entry): as the sequence (P62937 whole entry) above
Chain of KRAS Q61H (P01116 other isoform, or with tags, fused parts or gaps Q61H): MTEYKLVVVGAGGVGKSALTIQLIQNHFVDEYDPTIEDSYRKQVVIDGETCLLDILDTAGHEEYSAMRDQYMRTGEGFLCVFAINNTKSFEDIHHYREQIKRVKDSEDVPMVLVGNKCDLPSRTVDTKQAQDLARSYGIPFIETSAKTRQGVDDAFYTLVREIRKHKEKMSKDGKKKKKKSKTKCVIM
Chain of KRAS Q61H (P62937 whole entry): as the sequence (P62937 whole entry) above
Chain of NRAS Q61K (P01111 whole entry Q61K): as the sequence (P01111 whole entry Q61R) above, with R61K counted along it
Chain of NRAS Q61K (P62937 whole entry): as the sequence (P62937 whole entry) above
Chain of KRAS G12C (P01116-2 other isoform, or with tags, fused parts or gaps G12C): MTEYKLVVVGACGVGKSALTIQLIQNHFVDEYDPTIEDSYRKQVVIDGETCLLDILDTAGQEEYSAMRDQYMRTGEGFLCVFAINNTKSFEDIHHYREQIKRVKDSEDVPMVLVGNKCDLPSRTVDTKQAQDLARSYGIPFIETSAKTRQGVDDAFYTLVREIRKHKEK
Chain of KRAS G12C (P62937 whole entry): as the sequence (P62937 whole entry) above
Chain of KRAS WT (P01116 other isoform, or with tags, fused parts or gaps): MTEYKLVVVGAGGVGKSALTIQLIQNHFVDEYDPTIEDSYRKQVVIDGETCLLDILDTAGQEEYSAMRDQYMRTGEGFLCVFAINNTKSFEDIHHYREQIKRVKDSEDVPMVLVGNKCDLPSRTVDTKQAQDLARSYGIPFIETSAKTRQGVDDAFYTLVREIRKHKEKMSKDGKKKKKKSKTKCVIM
Chain of KRAS WT (P62937 whole entry): as the sequence (P62937 whole entry) above
Chain of KRAS G12D (P01116 other isoform, or with tags, fused parts or gaps G12D): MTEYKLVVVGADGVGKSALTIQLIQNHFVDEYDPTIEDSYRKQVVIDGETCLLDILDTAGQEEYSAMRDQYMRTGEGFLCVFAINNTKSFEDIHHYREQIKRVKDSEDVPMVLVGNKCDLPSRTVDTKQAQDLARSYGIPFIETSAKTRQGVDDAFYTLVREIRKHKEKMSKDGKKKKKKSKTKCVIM
Chain of KRAS G12D (P62937 whole entry): as the sequence (P62937 whole entry) above
Chain of NRAS WT (P01111 whole entry): as the sequence (P01111 whole entry Q61R) above, with R61Q counted along it
Chain of NRAS WT (P62937 whole entry): as the sequence (P62937 whole entry) above
Chain of KRAS G13C (P01116 other isoform, or with tags, fused parts or gaps G13C): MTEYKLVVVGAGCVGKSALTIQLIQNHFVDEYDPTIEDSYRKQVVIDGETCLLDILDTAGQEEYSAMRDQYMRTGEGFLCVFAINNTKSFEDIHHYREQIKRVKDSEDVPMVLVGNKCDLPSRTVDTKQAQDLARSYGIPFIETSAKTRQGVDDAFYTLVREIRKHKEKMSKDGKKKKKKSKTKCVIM
Chain of KRAS G13C (P62937 whole entry): as the sequence (P62937 whole entry) above
Chain of NRAS G12C (P01111 whole entry G12C): as the sequence (P01111 whole entry Q61R) above, with G12C, R61Q counted along it
Chain of NRAS G12C (P62937 whole entry): as the sequence (P62937 whole entry) above
Chain of KRAS G12V (P01116 other isoform, or with tags, fused parts or gaps G12V): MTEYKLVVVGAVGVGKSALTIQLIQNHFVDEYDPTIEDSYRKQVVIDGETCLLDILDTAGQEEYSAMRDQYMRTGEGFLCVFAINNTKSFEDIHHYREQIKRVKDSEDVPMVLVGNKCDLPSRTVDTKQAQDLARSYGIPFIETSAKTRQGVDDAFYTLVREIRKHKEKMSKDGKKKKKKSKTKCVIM
Chain of KRAS G12V (P62937 whole entry): as the sequence (P62937 whole entry) above

In the case of `CCn1c(-c2cccnc2[C@H](C)OC)c2c3cc(ccc31)-c1cc(O)cc(c1)C[C@H](NC(=O)[C@H](C(C)C)N(C)C(=O)[C@@]1(F)CCN(C(=O)OC)C1)C(=O)N1CCC[C@H](N1)C(=O)OCC(C)(C)C2` [Compound A615], the half-maximal inhibitory concentration (IC50) against NRAS WT lay within 0.01 to 0.1 µM; at KRAS G12C, 0.01 to 0.1 µM; at KRAS G13C, 0.01 to 0.1 µM; on KRAS G13D, 0.01 to 0.1 µM; on NRAS Q61R, 0.1 to 1 µM; at KRAS G12S, 0.01 to 0.1 µM. The IC50 was in the range of 0.01 to 0.1 µM on KRAS Q61H; 0.1 to 1 µM on KRAS G12D; 0.01 to 0.1 µM on KRAS G12V; 0.01 to 0.1 µM on KRAS WT; 0.01 to 0.1 µM at NRAS G12C; 0.1 to 1 µM against NRAS Q61K. Moreover, the IC50 in [1] and in [2] was 0.01 to 0.1 µM in each case.
Consider `CCn1c(-c2cccnc2[C@H](C)OC)c2c3cc(ccc31)-c1cc(CF)cc(c1)C[C@H](NC(=O)[C@H](C(C)C)N(C)C(=O)[C@@H]1OCC[C@@H]1c1ccccc1)C(=O)N1CCC[C@H](N1)C(=O)OCC(C)(C)C2` [Compound A509], for which the IC50 at NRAS WT was 0.1 to 1 µM; on KRAS G12C, 0.01 to 0.1 µM; at KRAS G13C, 0.01 to 0.1 µM; on KRAS G13D, 0.1 to 1 µM; on NRAS Q61R, 0.1 to 1 µM; at KRAS G12S, 0.1 to 1 µM. In addition, the IC50 against KRAS Q61H was in the range of 0.01 to 0.1 µM; on KRAS G12D, 0.1 to 1 µM; on KRAS G12V, 0.1 to 1 µM; on KRAS WT, 0.1 to 1 µM; on NRAS G12C, 0.01 to 0.1 µM; at NRAS Q61K, 0.1 to 1 µM. The IC50 in experiment [1] and in experiment [2] was 0.01 to 0.1 µM each time.
`CCn1c(-c2cccnc2[C@H](C)OC)c2c3cc(ccc31)-c1csc(n1)C[C@H](NC(=O)[C@H](C(C)C)N(C)C(=O)N1CC3(CCOCC3)C1)C(=O)N1CCC[C@H](N1)C(=O)OCC(C)(C)C2` [Compound A521]: the half-inhibitory concentration (IC50) at NRAS WT is 0.1 to 1 µM; on KRAS G12C, 0.1 to 1 µM; at KRAS G13C, 0.1 to 1 µM; on KRAS G13D, 1 to 10 µM; against NRAS Q61R, 0.1 to 1 µM; at KRAS G12S it was 0.1 to 1 µM. The IC50 at KRAS Q61H was 0.1 to 1 µM; at KRAS G12D, 1 to 10 µM; on KRAS G12V it was 0.1 to 1 µM; at KRAS WT it was 0.1 to 1 µM; at NRAS G12C, 0.1 to 1 µM; on NRAS Q61K it was 0.1 to 1 µM. In addition, the IC50 in experiment [1] and in [2] was 0.01 to 0.1 µM in each case.
On to `CCn1c(-c2cccnc2[C@H](C)OC)c2c3cc(ccc31)-c1csc(n1)C[C@H](NC(=O)[C@H](C(C)C)N(C)C(=O)N1[C@H](C)COC[C@@H]1C)C(=O)N1CCC[C@H](N1)C(=O)OCC(C)(C)C2` [Compound A276], for which the IC50 at NRAS WT was 0.1 to 1 µM; on KRAS G12C it was 0.1 to 1 µM; on KRAS G13C, 0.1 to 1 µM; on KRAS G13D, 1 to 10 µM; at NRAS Q61R it was 0.1 to 1 µM; on KRAS G12S it was 0.1 to 1 µM. Further, the IC50 lay in the range of 0.1 to 1 µM at KRAS Q61H; 1 to 10 µM on KRAS G12D; 1 to 10 µM at KRAS G12V; 0.1 to 1 µM at KRAS WT; 0.1 to 1 µM at NRAS G12C; 0.1 to 1 µM against NRAS Q61K. Also, the IC50 in experiment [1] and in experiment [2] was 0.1 to 1 µM in each case.
